Test results taken from patent US9700501B2, “Use of indole compounds as a cosmetic” (MERCK PATENT GESELLSCHAFT MIT BESCHRANKTER HAFTUNG, priority 2008, dated 2017).

Experiments:
PPAR alpha = target: T1, PPAR alpha (Homo sapiens, UniProt Q07869); experiment: PPAR-alpha transactivation assay (luciferase reporter, SK-Hep1 cells cotransfected with PPARα expression vector); assay type: cell-based; conditions: for Fold Activation PPAR alpha: 36 h incubation, luciferase activity relative to control
T1 construct: expressed in transfected cells; host or cells: human SK-Hep1 cells
T1 sequence (Q07869 1-468): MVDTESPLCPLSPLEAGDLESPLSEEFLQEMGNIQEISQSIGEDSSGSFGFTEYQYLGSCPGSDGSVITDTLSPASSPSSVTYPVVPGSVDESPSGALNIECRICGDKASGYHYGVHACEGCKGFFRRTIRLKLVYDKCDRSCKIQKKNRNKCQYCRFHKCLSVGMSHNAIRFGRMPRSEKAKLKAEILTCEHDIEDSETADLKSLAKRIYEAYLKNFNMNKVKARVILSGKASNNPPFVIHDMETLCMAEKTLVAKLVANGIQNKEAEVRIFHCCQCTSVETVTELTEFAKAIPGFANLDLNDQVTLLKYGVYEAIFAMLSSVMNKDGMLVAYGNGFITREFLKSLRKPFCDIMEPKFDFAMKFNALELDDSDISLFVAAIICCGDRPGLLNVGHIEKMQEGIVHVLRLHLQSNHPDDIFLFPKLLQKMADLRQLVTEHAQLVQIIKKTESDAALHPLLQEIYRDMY
Source text: (§1) Analysis of the activation of PPARα and PPARγ is based on the transfection of a DNA allowing the expression of a reporter gene (the gene of luciferase) under the control of the PPARs, either endogenous in the case of PPARγ or exogenous in the case of PPARα. The reporter plasmid J3TkLuc comprises three copies of the response element for PPARs of the human apo A-II gene (Staels, B et al. (1995), J. Clin. Invest., 95, 705-712) which are cloned upstream of the promoter of the thymidine kinase gene of the herpes simplex virus in the plasmid pGL3. This reporter gene was obtained by subcloning, in the plasmid pGL3, the plasmid J3TkCAT described above (Fajas, L et al. (1997), J. Biol. Chem., 272, 18779-18789). […] These cells were inoculated at the rate of 20,000 cells per well (96-well plates) and transfected with 150 ng of reporter DNA complexed with a mixture of lipids. In the case of the SK-Hep1 cells, an expression vector for PPARα, described by Sher, T. et al. (1993), Biochemistry, 32, 5598-5604, is cotransfected. After 5 hours, the cells are washed twice and incubated for 36 hours in the presence of the test compound in a fresh culture medium comprising 10% foetal calf serum. At the end of incubation, the cells are lysed and the luciferase activity is measured.

PPAR gamma = experiment: PPAR-gamma transactivation assay (luciferase reporter, CV1 cells expressing PPARγ); assay type: cell-based, human; conditions: for Fold Activation PPAR gamma: 36 h incubation, luciferase activity relative to control
Source text: as §1

B16-V melanoma cells = experiment: Inhibition of melanin synthesis in B16-V melanoma cells (whitening activity); assay type: cell-based; conditions: 72 h, alpha-MSH stimulation, FIG. 1
Experimental: B16-V melanoma cells were incubated for 72 h with assay medium containing different amounts of test substances. The concentration depends on the results of the MTT-Assay. Only concentrations without effect on viability (after 24 h incubation) were used for further melanin evaluation. Every 24 hours medium was changed and replaced by fresh assay medium containing the compounds and alpha-MSH (stimulation of melanin synthesis). The cell number was determined and the cells got lysed using 1M NaOH. Afterwards the amount of melanin was measured at 405 nm with a microplatereader (Safire2™, Tecan). Different concentrations of synthetic melanin were used to produce a calibration curve. Melanin content was expressed as pg/cell.

[1] = test system: epidermal differentiation proteins; experiment: In vitro expression of epidermal differentiation proteins; assay type: cell-based; conditions: own unpublished results

## CCOC(=O)c1c(C)n(CC(C)C)c2ccc(OC(C)(C(=O)O)c3ccccc3)cc12 (stereo not shown) [Compound, 2-Phenyl-2-(1-isobutyl-2-methyl-3-ethoxycarbonyl-5-indolyloxy)-propionic acid]
PPAR alpha
  PPAR-alpha activation (in words): activator
PPAR alpha; 0.1 μm
  Fold Activation PPAR alpha: 1.0 fold
PPAR alpha; 0.3 μm
  Fold Activation PPAR alpha: 1.3 fold
PPAR alpha; 1 μm
  Fold Activation PPAR alpha: 1.9 fold
PPAR alpha; 3 μm
  Fold Activation PPAR alpha: 2.3 fold
PPAR alpha; 6.25 μm
  Fold Activation PPAR alpha: 10.2 fold
PPAR alpha; 10 μm
  Fold Activation PPAR alpha: 6.7 fold
PPAR alpha; 12.5 μm
  Fold Activation PPAR alpha: 21.6 fold
PPAR alpha; 25 μm
  Fold Activation PPAR alpha: 34.8 fold
PPAR alpha; 30 μm
  Fold Activation PPAR alpha: 31.1 fold
PPAR alpha; 50 μm
  Fold Activation PPAR alpha: 42.0 fold
PPAR gamma
  PPAR-gamma activation (in words): activator
PPAR gamma; 0.1 μm
  Fold Activation PPAR gamma: 0.6 fold
PPAR gamma; 0.3 μm
  Fold Activation PPAR gamma: 1.8 fold
PPAR gamma; 1 μm
  Fold Activation PPAR gamma: 2.8 fold
PPAR gamma; 3 μm
  Fold Activation PPAR gamma: 3.0 fold
PPAR gamma; 6.25 μm
  Fold Activation PPAR gamma: 12.9 fold
PPAR gamma; 10 μm
  Fold Activation PPAR gamma: 4.3 fold
PPAR gamma; 12.5 μm
  Fold Activation PPAR gamma: 16.9 fold
PPAR gamma; 25 μm
  Fold Activation PPAR gamma: 18.7 fold
PPAR gamma; 30 μm
  Fold Activation PPAR gamma: 7.6 fold
PPAR gamma; 50 μm
  Fold Activation PPAR gamma: 18.8 fold
B16-V melanoma cells
  melanin inhibiting activity: superb melanin inhibiting activity
  melanin inhibiting activity compared with kojic acid: significantly better than kojic acid
[1]
  expression of epidermal differentiation proteins: increased expression of epidermal differentiation proteins
